According to ChEMBL document CHEMBL1151160, “Challenges and rewards of research in marine natural products chemistry in Brazil” (J Nat Prod, 2004):
In brackets after ≈: the same amount, converted by molar mass.

Key:
Format in all cases: functional, cell-based
MCF7 [1] = assay: Inhibition of G2 check point in gamma-irradiated human MCF7 cells expressing mutant p53 after 16 hrs by flow cytometry; details: MCF7, light or radiation study
MCF7 [2] = assay: Cytotoxicity against human MCF7 cells after 16 hrs by Celltiter assay; details: MCF7, 16 h
HCT-116 = assay: Cytotoxicity against human HCT116 cells

Compound | IC50 (MCF7 [1]) | IC50 (MCF7 [2]) | IC50 (HCT-116)
O=C1NC(=O)c2c1c1c3ccccc3[nH]c1n1cncc21 [ISOGRANULATIMIDE] | 1 µM | 40 µM | 
CC(=O)OCC(C)CCC[C@@H](C)[C@H]1CC[C@H]2[C@@H]3C[C@@H](O)[C@@]4(O)C[C@@H](O[C@@H]5OC[C@@H](O)[C@@H](OC(C)=O)[C@@H]5O)CC[C@]4(C)[C@H]3CC[C@]12C (stereo not given in full) [RIISEIN A] |  |  | 2 µg/mL (≈ 3.06 µM)
O=C1NC(=O)c2c1c1[nH]cnc1c1[nH]c3ccccc3c21 [GRANULATIMIDE] | 1 µM |  | 
CC(=O)OCC(C)CCC[C@@H](C)[C@H]1CC[C@H]2[C@@H]3C[C@@H](O)[C@@]4(O)C[C@@H](O[C@@H]5OC[C@@H](OC(C)=O)[C@@H](O)[C@@H]5O)CC[C@]4(C)[C@H]3CC[C@]12C (stereo not given in full) [RIISEIN B] |  |  | 2 µg/mL (≈ 3.06 µM)
